These are literature values, as cited in patent USRE50805E1, “Single-layer oral dose of neuro-attenuating ketamine” (ACADIA Pharmaceuticals Inc., priority 2013, dated 2026).

Where a name gives a salt, the structure may show the parent alone.

For data set [1] the following is noted: after oral administration, background statement.
Test in data set [2]: not given
The source holds these as a separate data set.

For `CNC1(c2ccccc2Cl)CCCCC1=O` (racemic) [ketamine, (R,S)—2-(2-chlorophenyl)-2-(methylamino) cyclohexanone], in data set [1], the elimination half-life is 2 to 3 h. In addition, where the note is “exceeding it leads to more pronounced side effects”, the “optimal efficacy plasma concentration” value is 10 to 300 ng/mL. Also, the “blood concentration level above which side effects may become more pronounced” value (in vivo) was “above 300 ng/L”.

`NC1(c2ccccc2Cl)CCCCC1=O` (racemic) [norketamine, (R,S)—2-(2-chlorophenyl)-2-(amino) cyclohexanone]: the elimination half-life in data set [1] was 4 h.

As for `CNC1(c2ccccc2Cl)CCCCC1=O` (centres unmarked) [ketamine hydrochloride], in data set [2], the solubility in water entry was “about 200 mg/ml”.
